Paper PMC5428521, “Identification of a Novel, Small Molecule Partial Agonist for the Cyclic AMP Sensor, EPAC1” (Scientific Reports, 2017)

Tested on: protein kinase A (PKA)
Assay: PKA kinase activity assay in HEK293T cell extracts
Assay type: biochemical
Settings: 1 mM cAMP, compound 0.1 to 100 µM
Method: PKA activity was measured directly in cell extracts using the PKA Kinase Activity Assay Kit (Abcam) following the manufacturer's instructions. […] Cells were washed in ice-cold PBS containing phosphatase inhibitors, scrapped into Eppendorf tubes and centrifuged at 200 × g at 4 °C for 5 minutes. Supernatants were discarded and the cell pellet was re-suspended in Complete Lysis Buffer containing 1 mM DTT, 1 mM PMSF and protease inhibitor cocktail (Roche) and then incubated for 10 minutes on ice (on the rocking platform) followed by vortex and centrifugation at […] at 4 °C for 20 minutes. Cell extracts were then transferred to fresh Eppendorf tubes, assayed for protein content and then stored at -80 °C. […] Next, 10 μl of ATP was added to each well and incubated at 30 °C for 90 min, with gentle shaking. The reaction was stopped by aspirating the contents of each well and then 40 μl of PKA phosphospecific substrate antibody was added to each well and then the plate was covered with plastic wrap and incubated at room temperature for 60 min (with gentle shaking every 20 min). […] Fluorescence was then measured at 480/530 nm. […] PKA activity was then measured in the cell extracts using an ELISA assay according to the manufactures instructions. […]

Cc1ccc(S(=O)(=O)NC(=O)COc2ccc3ccccc3c2)c(C)c1 [I942, N-(2,4-dimethylbenzenesulfonyl)-2-(naphthalen-2-yloxy)acetamide]
effect on PKA activity induced by cAMP: did not significantly affect PKA activity
